In PubChem BioAssay AID1343 (Sanford-Burnham Center for Chemical Genomics, 2008) one finds survival data, which are given here for eleven compounds.

The subject of the experiment is CSM14.1 tunicamycin-induced death, ATP luminescence, 48 h. The experiment in a line: rescue from tunicamycin-induced cell death, late-stage follow-up, mechanism study for ER stress death inhibitor project, undifferentiated CSM14.1, ATP content (AID 1343). Conditions: at 25 µM; active compounds read high.

Structures are written as SMILES. Calls of active or inactive are those of the source.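 Rule for the calls: active = survival of 63% or more, 10 points above the level seen with tunicamycin given alone; inactive = the rest.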

Take `CC1(C)CC(=O)C2=C(C1)Nc1ccccc1NC2c1ccc(-c2ccccc2)cc1` (stereo unspecified): the survival was 77%.
In the case of `COc1ccc(C2CC(=O)C3=C(C2)Nc2ccccc2NC3c2cccc(Oc3ccccc3)c2)cc1OC` (stereo unspecified) it was 63%; in that of `COc1ccc(C2CC(=O)C3=C(C2)Nc2ccccc2NC3c2cccc(Br)c2)cc1OC` (stereo unspecified), 64%; in that of `CCOc1cc(C2Nc3ccccc3NC3=C2C(=O)CC(c2ccc(OC)cc2)C3)cc(Cl)c1O` (stereo unspecified), 46% (inactive).
To `O=C1CC(c2ccccc2)CC2=C1C(c1c(F)cccc1Cl)Nc1ccccc1N2` (stereo unspecified) belongs 52% (inactive); to `CCOc1cccc(C2Nc3ccccc3NC3=C2C(=O)CC(c2ccc(OC)cc2)C3)c1` (stereo unspecified), 55% (inactive).
Turning to `CCCOc1ccc(C2Nc3ccccc3NC3=C2C(=O)CC(c2ccc(OC)c(OC)c2)C3)cc1` (stereo unspecified), the survival was 74%.
Consider `CSc1ccc(C2Nc3ccccc3NC3=C2C(=O)CC(c2ccccc2)C3)cc1` (stereo unspecified), for which the survival is 59% (inactive).
To `COc1ccc(C2CC(=O)C3=C(C2)Nc2ccccc2NC3c2ccccc2C(F)(F)F)cc1OC` (stereo unspecified) belongs 60% (inactive).
In the case of `COc1ccc(C2CC(=O)C3=C(C2)Nc2ccccc2NC3c2cc(C)ccc2C)cc1` (stereo unspecified) it was 57% (inactive).
In the case of `COc1ccc(C2CC(=O)C3=C(C2)Nc2ccccc2NC3c2cccc(C(F)(F)F)c2)cc1OC` (stereo unspecified) it was 65%.
